Assay results as given in patent publication US9642922B2, “Caspase-triggered nano-aggregation probes and methods of use” (The Board of Trustees of the Leland Stanford Junior …, priority 2013, dated 2017).
Numbered stars: 1 amine (or outer) side, 2 acyl side, 3 side chain; on linkers, the order of the positions; unused ones are H or OH. Square brackets hold non-standard residues; d marks the D form. Peptide text beside a SMILES is read from it. * marks the point of attachment. DOTA = O=C(O)CN1CCN(CC(=O)O)CCN(CC(=O)*)CCN(CC(=O)O)CC1; X1 = O=C(C1CSC(c2nc3ccc(N[*:1])cc3s2)=N1)[*:2]; X2 = N#Cc1ccc2cc(OCCCN*)ccc2n1; SEt = CCS*

How the values were obtained:
[1] = test system: apoptotic HeLa cells; test: Epifluorescence microscopy of apoptotic HeLa cells labeled with probes; type: cell-based, human
Method: After removal of the medium, the cells were incubated with C-SNAF, L-ctrl, or D-ctrl at 2 μM for 24 h. Some cells were first incubated with caspase inhibitor (Z-VAD-fmk, 50 μM) for 30 min, followed by incubating with 2 μM C-SNAF for 24 h. The cells were carefully washed with PBS (1×) three times, and stained with Hoechst 33342 (2 μM) at 37° C. for 30 min. After rinses with PBS (1×) several times, the medium was replaced and the fluorescence images were acquired with DAPI and Cy5.5 filters. The images were processed using the standard CRi Nuance software, analyzed using Image J software package (NIH), and presented at the same intensity scale for comparison.
HeLa cells in #1.5 borosilicate 8-well chambered coverslips (Nunc) were either incubated with C-SNAF (2 μM) alone or co-incubated with DOX (1, 2, and 5 μM) and 2 μM C-SNAF, 2 μM C-SNAF together with caspase inhibitor (Z-VAD-fmk, 50 μM), or control probes D-ctrl and L-ctrl at 2 μM for 24 h. Then the medium was removed, the cells were carefully washed with PBS (1×) three times, and stained with nuclear binding probe Hoechst 33342 (2 μM) at 37° C. for 30 min. After several rinses with PBS (1×), the medium was replaced and the fluorescence images were acquired with DAPI and […] filters.

[2] = Blood circulation and elimination in healthy nude mice; settings: 5 nmol i.v.
[3] = Water proton r1 relaxivity measurement; type: physicochemical; settings: 1 T
Method: Water proton r1 relaxivities of probe 15 and 1-ctrl (19) before and after caspase-3 incubation were then measured at 1, 1.5 and 3 T. For comparison, the isolated cyclized products 2-I and 2-II were also measured.
A series of solutions containing contrast agents with five different concentrations (0.05-0.5 mM) in Caspase buffer (pH 7.4) were treated with or without Casp-3 (50 nM) at 37° C. overnight. The solutions were placed in PCR tubes, bundled together, and MR-imaged at 1 T (Bruker Icon, Bruker BioSpin Corp.), […], 1.5 and 3 T (Signa HDx, GE Healthcare) at room temperature.
The scanning procedure began with a localizer and then consisted of a series of inversion-prepared fast spin echo scans, identical in all aspects (TR 8000 ms (6000 ms for Bruker Icon), TE minimum, field of view 6 cm, slice thickness 2 mm, matrix 128×128, NEX 1) except for the inversion time (TI) that was varied as: 4000, 2400, 1200, 800, 600, 400, 300, 200, 100, and 50 ms. For quantitative data analysis, the acquired MR images were transferred as DICOM images to an offline workstation, and signal intensities were extracted from each of the 5 samples at each of the 10 TI times by manual region of interest (ROI) placement and voxel averaging within the ROI.
Signal intensity versus TI relationships were fit to the following exponential T1 recovery model by non-linear least squares regression: SI (TI)=S0[1−2*exp(−TI/T1)+exp(−TR/T1)]. Relaxation rates (R1) were determined as 1/T1. Longitudinal relaxivities (r1, units of mM^−1s^−1) were calculated as the slope of R1 vs [Gd] after the determination of true Gd concentration of each sample by the ICP-MS measurement.

[4] = test system: subcutaneous HeLa tumors; test: In vivo MR imaging of doxorubicin-treated HeLa tumors; set-up: species or system mouse
Method: Evaluation of activatable contrast agent probe 15 for MR imaging of caspase-3 activity in vivo was performed in nude mice bearing subcutaneous HeLa tumors. Tumors were implanted and grown for 10-15 days before receiving intratumoral injections of two doses of 0.2 mg doxorubicin separated by 2 days. Probe 15 or 1-ctrl (19) (0.1 mmol kg^−1) was injected intravenously the day before treatment (baseline) and four days post-treatment (treated). Spin-echo T1-weighted multislice MR images at 1 T were recorded before (pre-contrast) and every 4 min after contrast agent administration (post-contrast), and scanning was carried out for 4 h post-contrast for each mouse. Much brighter MR signals (T1 contrast) were observed 40 and 120 min after injection with probe 15 in treated tumors as compared to that in baseline tumors (FIG. 29A), or in treated tumors with 1-ctrl (19) (FIG. 29B).
In vivo MR imaging was performed on an Aspect M2 1T permanent magnet (Aspect Imaging, Shoham, Israel) using a 40 mm Transmit/Receive mouse body coil. During imaging, the animals were anaesthetized with isofluorane and their respiration and body temperature were constantly monitored. Intravenous contrast injection at 0.1 mmol/kg concentration was administered in a 100 μL volume for every imaging session. Multi-slice (312 μm in-plane, 12 slices with 1 mm thickness) T1-weighted spin echo images (TE/TR=8.9/250 ms, matrix 128×128, FOV=40 mm, NEX=6) were acquired, one before contrast injection and then every 4 min up to 4 h after contrast injection. A 1 mM Dotarem reference tube was inserted in the field of view to enable inter-session variability correction during post-processing. Each animal underwent two imaging session; one before DOX treatment (baseline), and one after DOX treatment (treated).
Acquired MR data were transferred as DICOM images to an offline workstation and ImageJ (NIH) was used for post processing and quantitative image analysis. This consisted of manual segmentation of tumor ROI for each slice, slice-wise normalization of mean tumor signal intensity with the 1 mM Dotarem reference standard to account for inter-session variability, followed by combining these normalized, slice-wise values to generate mean volumetric tumor signal intensities (SI) for each time point.
Signal enhancement was calculated at each time point as the difference between the tumor SI at that time point and the tumor SI in the pre-contrast (t=0) dataset. SE(t)=SI(t)−SI(t=0); for each mouse, for every session
This metric was used to quantify the difference in SE between the baseline (before DOX treatment) session and the treated session for each mouse, as a means to tease out the difference between the two contrast agents, probe 1 and 1-cntl (19) over the time course of the imaging session. % D(t)=[SE(t,treated)−SE(t,baseline)]/SE(t,baseline); for each mouse.

[5] = test system: HeLa cells; test: ICP-MS cellular uptake of Gd in HeLa cells; type: cell-based, human; settings: 250 μM probe, 24 h
Method: The cellular uptake of Gd was studied by inductively-coupled plasma mass spectrometry (ICP-MS) analysis of the amount of Gd in viable and apoptotic cells after incubation with probe 15 (50-250 μM) for 24 h. […] This uptake enhancement was inhibitable by Z-VAD-fmk (50 μM), confirming the caspase-3-dependent accumulation of probe 15 in apoptotic cells.

Row | r1 after activation higher than Dotarem [3] | r1 after activation higher than before activation [3] | r1 relaxivity upon caspase-3 activation [3] | r1 relaxivity without caspase-3 activation [3] [mM⁻¹ s⁻¹] | r1 after activation higher than before activation ([3]; listed as Gd-based MRI probe) [%] | r1 relaxivity upon caspase-3 activation ([3]; listed as Gd-based MRI probe) [mM⁻¹ s⁻¹] | SMILES | cell labeling efficiency ([1]; DOX 1 μM) [%] | cell labeling efficiency ([1]; DOX 5 μM) [%] | enhancement in cell labeling efficiency ([1]; DOX 1 to 5 μM) | cell labeling efficiency ([1]; STS 0.5 μM) [%] | cell labeling efficiency ([1]; STS 2 μM) [%] | enhancement in cell labeling efficiency ([1]; STS 0.5 to 2 μM) | blood half-life [2] [h] | time of nearly complete elimination after administration [2] [h] | time of maximum SI enhancement in treated tumors after administration ([4]; 0.1 mmol kg^−1 i.v.) [min] | % difference in tumor SI enhancement, treated versus baseline ([4]; 20 min) [%] | % difference in tumor SI enhancement, treated versus baseline ([4]; 120 min) [%] | SI enhancement in treated mice higher than with 1-ctrl (19) ([4]; 120 min after injection) [%] | Gd uptake in tumors (ICP-MS) ([4]; mouse, in vivo) | cellular uptake of Gd in STS-treated versus non-treated cells [5] [fold]
1 | – | – | – | – | – | – | CCSSC[C@@H](NC(=O)[C@H](CC(=O)O)NC(=O)[C@@H](NC(=O)[C@H](CCC(=O)O)NC(=O)[C@H](CC(=O)O)NC(C)=O)C(C)C)C(=O)N[C@@H](CCCCNC(=O)CCCCCN1C(=CC=CC=CC2=[N+](CC)c3ccc4c(S(=O)(=O)[O-])cc(S(=O)(=O)O)cc4c3C2(C)C)C(C)(C)c2c1ccc1c(S(=O)(=O)O)cc(S(=O)(=O)O)cc21)C(=O)Nc1ccc2nc(C3=N[C@@H](C(=O)NCCCOc4ccc5nc(C#N)ccc5c4)CS3)sc2c1 [C-SNAF] | 9 | 92 | approximately 10 fold | 23 | 90 | approximately 4 fold | 1.0 ± 0.45 | ≤ 12 | – | – | – | – | – | –
2 | about 510% | about 106% | approximately 29.3 mM^−1 s^−1 | 14.2 | 106 | 29.3 | CCSSCC(NC(=O)C(CC(=O)O)NC(=O)C(NC(=O)C(CCC(=O)O)NC(=O)C(CC(=O)O)NC(C)=O)C(C)C)C(=O)NC(CCCCNC(=O)CN1CCN(CC(=O)[O-])CCN(CC(=O)[O-])CCN(CC(=O)[O-])CC1)C(=O)Nc1ccc2nc(C3=NC(C(=O)NCCCOc4ccc5nc(C#N)ccc5c4)CS3)sc2c1.[Gd+3] (centres unmarked) [probe 15] (Ac-DEVDC(SEt)K(DOTA)[X1]-X2; configuration not given here) | – | – | – | – | – | – | – | – | 40 | 62 | 169 | 77 | higher Gd level in treated tumors | 6.6
